# Tested on: collagen-induced thrombocyte aggregation of human blood plasma which is rich of platelets
# Experiment: Collagen-induced thrombocyte aggregation in platelet-rich human plasma (aggregometry)
# Procedure: While the other conditions of the experiment remained the same as in Example 1, the collagen-induced thrombocyte aggregation was measured with different concentrations of genistein and glutamic acid dipeptide.
Molecule,"thrombocyte aggregation (glutamic acid dipeptide 100 μmolar, without genistein, control 65%)","maximum thrombocyte aggregation (Example 3: 50 uM genistein, absence of glutamic acid dipeptide) [%]","maximum thrombocyte aggregation (Example 4: 50 uM genistein, 0 uM alanine dipeptide, control about 70%)","maximum thrombocyte aggregation (genistein 100 uM, collagen-induced, control without genistein about 65%)","maximum thrombocyte aggregation (genistein 150 uM, collagen-induced, control about 65%)","maximum thrombocyte aggregation (genistein 200 uM, collagen-induced, control about 65%)"
glutamic acid dipeptide,about 60%,,,,,
"O=c1c(-c2ccc(O)cc2)coc2cc(O)cc(O)c12 [genistein, Genistein]",,25,about 60%,about 35%,about 23%,about 5%
